These results are taken from US4404217A, “3-Indolyl alkylene amino propanols and cardiovascular compositions thereof” (C. M. Industries, priority 1979, dated 1983).

In general, EC50 refers to the concentration at which the effect is half-maximal.

Read-outs that look alike come from different tables or passages of the source.

The target of one assay is T1, β2 receptors (Rattus norvegicus, UniProt P10608).
T1 construct: lungs of rats (β2 receptors); from tissue; host or cells: rat lung plasma membranes
The assay is described as follows: Displacement of 3H dihydroalprenolol, plasmic membranes of lungs of rats. In kind it is binding. As for the experimental part:
(§1) The binding tests are effected on suspensions of plasmic membranes coming from various organs. The suspensions of membranes are placed in incubation with the tritiated ligand and various concentrations of products to be tested. After incubation, each test is filtered on GFB(Whatman) filter, the filters are dried and introduced into counting flasks. The measurement of the radioactivity is assessed by scintillation in a liquid medium.
(§2) The tests were made on plasmic membranes of hearts of dogs (β1 receptor) and lungs of rats (β2 receptors), in the presence of ^3 H dihydroalprenolol 4×10^-9 M.

Assay [1] concerns the target T2, β adrenergic receptors (β2) (Canis lupus familiaris, UniProt P54833).
T2 construct: The dog is anaesthetized using sodium pentobarbital; from tissue; host or cells: whole anaesthetized dog (vasculature)
Put plainly: Antagonism of the effects of isoprenaline, hypotension (β2), anaesthetized dog, IV. Conditions: read-out: ID50 ISOPRENALINE β2. In kind it is in vivo. As for the experimental part:
(§3) The dog is anaesthetized using sodium pentobarbital, administered by the IV route at a dose of 30 mg/kg. A cannula placed in the saphenous vein allows the intra-venous injections of the products. The animal is submitted to intubation and is allowed to breathe spontaneously.
(§4) The cardiac frequency and the systemic arterial pressure are studied and the variations of these parameters are observed after intra-venous injection of the product to be tested. Each product is tested with increasing doses.
The antagonism of the products with respect to the β stimulant cardio-vascular effects of isoprenaline on the β adrenergic receptors has been sought. […] The last column indicates the cardioselectivity (β1 >β2) or a low cardioselectivity β1 ≥β2, or no cardioselectivity β1 <β2 and β1 =β2.

The target in the next assay is T3, α2 receptor (Rattus norvegicus, UniProt P22909).
T3 construct: plasmic membranes of rat brains; from tissue; host or cells: rat brain plasma membranes
T3 sequence (P22909 1-465): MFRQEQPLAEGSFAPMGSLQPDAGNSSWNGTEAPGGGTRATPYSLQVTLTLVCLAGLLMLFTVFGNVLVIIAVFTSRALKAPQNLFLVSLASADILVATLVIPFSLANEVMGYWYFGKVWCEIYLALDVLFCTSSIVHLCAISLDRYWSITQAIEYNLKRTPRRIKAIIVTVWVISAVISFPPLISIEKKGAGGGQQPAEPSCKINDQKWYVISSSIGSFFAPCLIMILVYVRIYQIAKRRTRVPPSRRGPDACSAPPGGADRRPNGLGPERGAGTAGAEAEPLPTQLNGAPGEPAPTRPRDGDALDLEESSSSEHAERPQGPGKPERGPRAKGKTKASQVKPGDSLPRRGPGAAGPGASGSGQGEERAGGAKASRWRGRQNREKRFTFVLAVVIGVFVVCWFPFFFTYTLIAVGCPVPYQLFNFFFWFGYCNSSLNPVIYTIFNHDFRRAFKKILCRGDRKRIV
The assay is described as follows: Displacement of 3H clonidine, plasmic membranes of rat brains. Conditions: for affinity for the receptor with clonidine (α2): in vitro. It is filed as binding. As for the experimental part: as §1
(§5) The tests were made on plasmic membranes of rat brains, in the presence of ^3 H clonidine 1.2×10^-9 M (α2 receptor) and of ^3 H WB4101 (N-[2-(2.6dimethoxyphenoxy)ethyl]1.4benzodioxane-2-methylamine), 0.2×10^-9 M (α1 receptor).
Background: Displacement assays read how much labelled ligand stays bound in the presence of the test substance.

Assay [2] is described as follows: Cardiac frequency and arterial pressure in the anaesthetized dog after intravenous injection. In kind it is in vivo. Conditions: i.v. route, anaesthetised dog. As for the experimental part:
as §3, §4

A further assay addresses T4, β1 receptor (Canis lupus familiaris, UniProt P79148).
T4 construct: plasmic membranes of hearts of dogs (β1 receptor); from tissue; host or cells: dog heart plasma membranes
The assay is described as follows: Displacement of 3H dihydroalprenolol, plasmic membranes of hearts of dogs. It is filed as binding, dog. On the procedure:
as §1, §2

For another assay, the system named is platelet aggregation. The assay is described as follows: Anti-aggregating activity, BORN technique, plasma rich in platelets, ADP. It is filed as cell-based, human. Conditions: for IC50: Homo sapiens, Platelet, read-out: concentration for inhibiting by 50% the maximum rate of aggregation; for inhibition of the platelet response with respect to the ADP: human platelet-rich plasma. As for the experimental part: The anti-aggregating activity of the CM 7743, 7744, 7824, 7854, 7859 and 7874 has been studied according to the BORN technique on plasma rich in platelets of human origin. ADP has been used as indicator of platelet aggregation. […] The required concentration for inhibiting by 50% the maximum rate of aggregation varies from 45 to 100 μM.

A further assay concerns α1 receptor. Put plainly: Displacement of 3H WB 4101, plasmic membranes of rat brains. It is filed as binding. The note with it: for affinity for the receptor with WB 4101 (α1): in vitro; for EC50: read-out: EC50 of DISPLACEMENT of 3H WB 4101, rat brain membranes, 3H WB4101 0.2×10^-9 M. On the procedure:
as §1, §5

Another assay relates to α adrenergic receptors. Put plainly: Antagonism of the effects of noradrenaline (pressure response), anaesthetized dog, IV. The note with it: 50% inhibition of pressure response to noradrenaline. It is filed as in vivo. On the procedure:
as §3, §4
The antagonism of the products with respect to the vascular effects provoked by the IV administration of noradrenaline on the α adrenergic receptors has been sought. The results presented in Table III are expressed in ID50 : it is the dose (mg/kg) which provokes the inhibition by 50% of the pressure response due to the IV administration of noradrenaline.

Assay [3] addresses T5, β adrenergic receptors (β1) (Canis lupus familiaris, UniProt P79148).
T5 construct: The dog is anaesthetized using sodium pentobarbital; from tissue; host or cells: whole anaesthetized dog (heart)
Put plainly: Antagonism of the effects of isoprenaline, tachycardia (β1), anaesthetized dog, IV. In kind it is in vivo. Conditions: for cardioselectivity β1 - β2 / ED50: dog; for cardioselectivity β1 - β2: isoprenaline antagonism, β1 versus β2; for ED50: read-out: ID50 ISOPRENALINE β1; for cardioselective in vivo (selectively inhibit the cardiac receptors): test with isoprenaline.

[4] abbreviates: IV, 50% inhibition of isoprenaline hypotension.
The mark [5] stands for this setting: IV, 50% inhibition of isoprenaline tachycardia.

T1 sequence (P10608 whole entry): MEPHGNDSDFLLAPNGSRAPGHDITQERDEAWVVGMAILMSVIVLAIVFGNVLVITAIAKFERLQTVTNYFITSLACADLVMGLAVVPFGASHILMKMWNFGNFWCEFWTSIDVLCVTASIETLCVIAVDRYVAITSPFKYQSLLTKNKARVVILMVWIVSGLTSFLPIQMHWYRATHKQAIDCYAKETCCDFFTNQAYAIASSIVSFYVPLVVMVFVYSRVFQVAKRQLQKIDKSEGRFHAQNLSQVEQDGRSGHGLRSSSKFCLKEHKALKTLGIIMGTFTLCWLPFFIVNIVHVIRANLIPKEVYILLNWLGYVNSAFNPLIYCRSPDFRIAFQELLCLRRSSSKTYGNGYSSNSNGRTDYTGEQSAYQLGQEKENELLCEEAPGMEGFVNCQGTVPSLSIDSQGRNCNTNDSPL
T5 sequence (P79148 whole entry): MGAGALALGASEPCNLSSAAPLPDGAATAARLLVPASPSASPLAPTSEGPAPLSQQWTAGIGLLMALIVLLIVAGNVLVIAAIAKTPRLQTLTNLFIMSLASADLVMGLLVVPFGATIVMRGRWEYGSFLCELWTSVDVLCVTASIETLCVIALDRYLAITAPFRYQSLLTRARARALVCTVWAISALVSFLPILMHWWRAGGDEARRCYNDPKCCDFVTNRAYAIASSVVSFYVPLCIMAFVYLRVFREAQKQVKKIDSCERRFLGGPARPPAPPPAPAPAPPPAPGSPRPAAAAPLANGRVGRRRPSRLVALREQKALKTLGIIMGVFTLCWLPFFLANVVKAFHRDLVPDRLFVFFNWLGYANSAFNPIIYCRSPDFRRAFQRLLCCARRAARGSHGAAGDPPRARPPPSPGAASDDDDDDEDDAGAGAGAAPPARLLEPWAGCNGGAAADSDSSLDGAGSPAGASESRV
T4 sequence (P79148 whole entry): as above
T2 sequence (P54833 whole entry): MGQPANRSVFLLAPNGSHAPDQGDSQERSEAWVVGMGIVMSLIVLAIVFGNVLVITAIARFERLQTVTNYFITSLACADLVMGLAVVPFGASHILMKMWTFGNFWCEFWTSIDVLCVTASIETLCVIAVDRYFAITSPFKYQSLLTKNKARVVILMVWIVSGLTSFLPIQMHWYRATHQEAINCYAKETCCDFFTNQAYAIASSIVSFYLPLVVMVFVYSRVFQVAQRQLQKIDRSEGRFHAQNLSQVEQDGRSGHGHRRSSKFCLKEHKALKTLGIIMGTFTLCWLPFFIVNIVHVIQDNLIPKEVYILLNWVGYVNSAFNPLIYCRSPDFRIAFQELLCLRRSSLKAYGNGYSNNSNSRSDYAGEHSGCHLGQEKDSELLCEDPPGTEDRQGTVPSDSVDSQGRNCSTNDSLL

`CC(Cc1c[nH]c2ccccc12)NCC(O)COc1ccccc1C#N` (stereo not drawn) [compound 7824]: the EC50 on β2 receptors is 10 nM; at β1 receptor, 13.5 nM; at α1 receptor it was 110 nM. For the same compound, the ED50 was at least 0.3 mg/kg in assay [1] (iv) and 0.3 mg/kg in [3] (iv). Also, the “affinity for the receptor with clonidine (α2)” value (“affinity … (α2)” for short) on α2 receptor is listed as “no affinity”. Also, the “reduction in the peripheral arterial pressure” value (“reduction” for short) in assay [2] was “reduction in the peripheral arterial pressure”. For the same compound, the IC50 in the assay with platelet aggregation fell in the range of 45000 to 100000 nM. Also, in the assay on platelet aggregation, the “inhibition of the platelet response with respect to the ADP” value (from here on “inhibition of the platelet response”) is reported as “inhibited the platelet response”. Further, the “affinity for the receptor with WB 4101 (α1)” value (“affinity … (α1)” below) in the assay with α1 receptor is on record as “have an affinity”. Further, the “ID50 NORADRENALINE α” value in the assay with α adrenergic receptors came to 1 mg/kg. Besides, the “cardioselectivity β1 - β2” value in [3] (IV) is listed as “β1 ≥ β2 (low cardioselectivity β1 ≥β2)”.
For the compound `CC(Cc1c[nH]c2ccccc12)NCC(O)COc1cccc2[nH]ccc12` (stereo not drawn) [compound 7874], the concentration giving a half-maximal response (EC50) on β2 receptors is 8.2 nM; at α2 receptor, 20 nM; on β1 receptor, 4 nM; on α1 receptor it was 215 nM. Moreover, the ED50 is 0.01 to 0.03 mg/kg in [1] (setting [4]) and 0.01 mg/kg in assay [3] (iv). For the same compound, the “reduction” value in assay [2] is given as “reduction in the peripheral arterial pressure”. Also, the IC50 in the assay with platelet aggregation was in the range of 45000 to 100000 nM. In addition, the “inhibition of the platelet response” value in the assay with platelet aggregation was “inhibited the platelet response”. In the assay with α1 receptor, the “affinity … (α1)” value is “have an affinity”. Besides, the “ID50 NORADRENALINE α” value in the assay on α adrenergic receptors is given as above 0.03 mg/kg. Further, the “cardioselectivity β1 - β2” value in assay [3] (IV) is “β1 ≥ β2 (low cardioselectivity β1 ≥β2)”.
On to `Cc1ccccc1OCC(O)CNC(C)Cc1c[nH]c2ccccc12` (stereo not drawn) [compound 7744], for which the EC50 on β2 receptors was found to be 52 nM; on α2 receptor, 20.5 nM; on β1 receptor, 31 nM; at α1 receptor, 500 nM. Moreover, the ED50 in assay [1] (setting [4]) is at least 0.3 mg/kg; in [3] (iv), 0.1 mg/kg. Besides, the “reduction” value in assay [2] is “reduction in the peripheral arterial pressure”. Besides, the IC50 with platelet aggregation was in the range of 45000 to 100000 nM. Besides, the “inhibition of the platelet response” value in the assay on platelet aggregation is “inhibited the platelet response”. The “affinity … (α1)” value in the assay on α1 receptor was “have an affinity”. Besides, in the assay on α adrenergic receptors, the “ID50 NORADRENALINE α” value was in the range of 0.1 to 1 mg/kg. The “cardioselectivity β1 - β2” value in [3] (IV) is recorded as “β1 > β2 (cardioselectivity (β1 >β2))”. Also, the “cardioselective in vivo (selectively inhibit the cardiac receptors)” value in assay [3] is “cardioselective in vivo”.
For the compound `CC(Cc1c[nH]c2ccccc12)NCC(O)COc1ccccc1Cl` (stereo not drawn) [compound 7806], the 50% effective concentration (EC50) came to 12 nM on β2 receptors, 12 nM at α2 receptor, 27.5 nM on β1 receptor and 310 nM on α1 receptor. For the same compound, the ED50 was at least 0.1 mg/kg in assay [1] (iv) and 0.3 mg/kg in assay [3] (iv). Also, the “affinity … (α2)” value on α2 receptor is given as “no affinity”. In [2], the “reduction” value is listed as “reduction in the peripheral arterial pressure”. Besides, the “affinity … (α1)” value in the assay on α1 receptor was “have an affinity”. Also, the “ID50 NORADRENALINE α” value in the assay on α adrenergic receptors was 0.3 mg/kg.
As for `Cc1ccccc1OC[C@H](O)CN[C@H](CO)Cc1c[nH]c2ccccc12` [compound 7903], the concentration giving a half-maximal response (EC50) on β2 receptors (rat lung membranes, 3H dihydroalprenolol 4×10^-9 M) was determined as 2000 nM; at α2 receptor (rat brain membranes, 3H clonidine 1.2×10^-9 M) it was 29.5 nM; at β1 receptor (dog heart membranes, 3H dihydroalprenolol 4×10^-9 M), 2050 nM; at α1 receptor, 1.9 nM. For the same compound, the ED50 in [1] (setting [4]) was 1 mg/kg; in assay [3] (setting [5]), 3 mg/kg. Besides, the “affinity … (α2)” value at α2 receptor is “no affinity”. In assay [2], the “reduction” value is reported as “reduction in the peripheral arterial pressure”. Further, in the assay with α adrenergic receptors, the “ID50 NORADRENALINE α” value worked out at 3 mg/kg. For the same compound, the “cardioselectivity β1 - β2” value in assay [3] (IV) is recorded as “β1 < β2 (no cardioselectivity β1 <β2)”.
For `Cc1ccccc1OCC(O)CNC(CO)Cc1c[nH]c2ccccc12` (racemic) [compound 7906], the EC50 on β2 receptors (read-out: EC50 of DISPLACEMENT of 3H DIHYDROALPRENOLOL, Lung (β2), rat lung membranes, 3H dihydroalprenolol 4×10^-9 M) came to 155 nM; at α2 receptor (read-out: EC50 of DISPLACEMENT of 3H CLONIDINE, rat brain membranes, 3H clonidine 1.2×10^-9 M) it was 41 nM; at β1 receptor (read-out: EC50 of DISPLACEMENT of 3H DIHYDROALPRENOLOL, Heart (β1), dog heart membranes, 3H dihydroalprenolol 4×10^-9 M) it was 215 nM; on α1 receptor, 1.1 nM. The ED50 in assay [1] (setting [4]) is 1 mg/kg; in assay [3] (setting [5]), 0.3 to 1 mg/kg. In assay [2], the “reduction” value is listed as “reduction in the peripheral arterial pressure”. Moreover, the “ID50 NORADRENALINE α” value in the assay with α adrenergic receptors was above 3 mg/kg. For the same compound, the “cardioselectivity β1 - β2” value in assay [3] (IV) was “β1 ≥ β2 (low cardioselectivity β1 ≥β2)”.
Regarding `CC(Cc1c[nH]c2ccccc12)NCC(O)COc1ccccc1[N+](=O)[O-]` (stereo not drawn) [compound 7808], the half-maximal effective concentration (EC50) at β2 receptors stood at 24 nM; at α2 receptor it was 25 nM; at β1 receptor, 28.5 nM; at α1 receptor, 320 nM. For the same compound, the ED50 in assay [1] (iv) was found to be 1 mg/kg; in assay [3] (iv) it was 0.3 mg/kg. At α2 receptor, the “affinity … (α2)” value is “no affinity”. Also, in [2], the “reduction” value is on record as “reduction in the peripheral arterial pressure”. Also, in the assay with α1 receptor, the “affinity … (α1)” value is recorded as “have an affinity”. Further, the “ID50 NORADRENALINE α” value with α adrenergic receptors is given as 0.3 mg/kg. Besides, the “cardioselectivity β1 - β2” value in assay [3] (IV) is reported as “β1 > β2 (cardioselectivity (β1 >β2))”. Besides, in [3], the “cardioselective in vivo (selectively inhibit the cardiac receptors)” value was “cardioselective in vivo”.
